From publication PMC7586456 (ACS Pharmacology & Translational Science, 2020)

System: SARS CoV-2 (USA_WA1/2020)

| SMILES | rescue of SARS-CoV-2 CPE (in words) |
| --- | --- |
| CC1=C[C@]23C(=O)[C@@H](C=C(CO)[C@@H](O)[C@]2(O)[C@H]1O)[C@H]1[C@@H](C[C@H]3C)C1(C)C [ingenol] | protected against SARS-CoV-2 induced CPE, but to lesser degrees than cepharanthine |
| CCN1CCN(Cc2ccc(Nc3ncc(F)c(-c4cc(F)c5nc(C)n(C(C)C)c5c4)n3)nc2)CC1 [abemaciclib] | protected against SARS-CoV-2 induced CPE, but to lesser degrees than cepharanthine |
| C=CC(=O)Nc1cc(Nc2nccc(-c3cn(C)c4ccccc34)n2)c(OC)cc1N(C)CCN(C)C [osimertinib] | protected against SARS-CoV-2 induced CPE, but to lesser degrees than cepharanthine |
| CC(CN(C)C)CN1c2ccccc2CCc2ccccc21 (stereo not shown) [trimipramine] | protected against SARS-CoV-2 induced CPE, but to lesser degrees than cepharanthine |
